Where two headings read alike, the source gives them in different places.
What was measured:
[1] = solvent, cited from earlier work
[2] = document value; cited from earlier work
[3] = Hansen solubility parameters (HSP), δ difference and HSP distance Ra
[4] = cmc determination with probe solutions in NMP, fluorescence spectrophotometer; assay type: physicochemical; settings: Supreme Clean solution (directly prepared); probe dissolved in NMP; range read from fluorescence intensity-concentration curve
Excerpt: (§1) In order to determine whether these fluorescence probe molecules can form a stable probe solution, the inventors dissolved these probe molecules in N-methylpyrrolidone (NMP).
(§2) Detergent solutions prepared in a series of concentrations, including the directly prepared Supreme Clean (i.e. Supreme Biotechnology (Clean) liquid laundry detergent) solution and Supreme Brilliant White (i.e. Supreme Biotechnology (Brilliant White) liquid laundry detergent) washing water containing a fluorescent brightener, are tested using these probe solutions formed above. Specifically, an appropriate wavelength is selected according to the determination results of a fluorescence spectrophotometer, and a fluorescence response value-concentration curve is plotted with detergent concentrations on the x-axis and fluorescence intensity on the y-axis. The change section of the curve from a plateau region to a rising region is visually obtained, corresponding to the value range of the measured value of cmc.

[5] = as above; assay type: physicochemical; settings: Supreme Brilliant White washing water with fluorescent brightener; probe dissolved in NMP
Excerpt: as §1, §2

[6] = cmc by fluorescence probe method, customized photoelectric detector (CD detector); assay type: physicochemical; settings: aqueous solution of Supreme Biotechnology (Bright White) laundry detergent; label = solvent for probe
Method: Here, the liquid to be tested is Supreme Biotechnology (Brilliant White) detergent solution (ZZLB), and the detector is a customized photoelectric detector (CD detector).
In addition, due to the use of the CUR-NMP single organic solvent composition system, the solvent addition amount in Table 6 can be considered equivalent to the addition amount of the probe solution. The cmc value is determined using the fitted line intersection method, i.e., according to the determination results of a fluorescence spectrophotometer, an appropriate wavelength is selected within the corresponding fluorescence emission peak range, and a fluorescence response value-concentration curve is plotted with detergent concentrations on the x-axis and fluorescence intensity on the y-axis. The plateau region and the rising region of the curve are fitted by linear regression, respectively, and the intersection point of two fitted lines is obtained. The surfactant concentration on the x-axis corresponding to the intersection point is the cmc concentration (measured value).
The fluorescence photoelectric detector used in the present invention includes any of the following: • 1) including excitation filter (430 nm), dichroic mirror, and emission filter (495 nm), light source: peak wavelength of 430 nm, waveband of 420 to 440 nm, working current: 0.02 A, working voltage: 5V, the acceptable wavelength range of detector of at least 480-510 nm; • 2) including excitation filter (550 nm), dichroic mirror, and emission filter (638 nm), light source: peak wavelength of 550 nm, waveband of 540 to 560 nm, working current: 0.02 A, working voltage: 5V, the acceptable wavelength range of detector of at least 620-650 nm.
Referring to Examples 1 and 3, Supreme Biotechnology (Brilliant White) detergent solution was prepared. […] Determination was carried out using a CD detector in the above two cases.

[7] = cmc of detergent solution by fluorescence probe method, fluorescence spectrophotometer (Example 1); assay type: physicochemical
[8] = cmc by surface tension method; assay type: physicochemical; settings: NMP without probe
Excerpt: Based on the above speculation, the inventors also observed the change in the cmc value at different addition amounts of the NMP solvent (without the probe) used in the CUR-NMP probe solution using the surface tension method. When the addition amount of NMP is less than 1000, the cmc value determined is affected to some extent, but the effect is small. When the addition amount of NMP is less than 400, the cmc value determined is basically not affected, and the result is basically consistent with the result determined by fluorescence spectrometry and conforms to the inference.
FIG. 5 is a graph showing the curves obtained by determining the cmc of the above various brands of detergent solutions using the surface tension method.

[9] = HSP distance between solvent and pyrene
[10] = HSP distance between solvent and rhodamine B
[11] = total δ of solvent minus total δ of pyrene
[12] = total δ of solvent minus total δ of rhodamine B
[13] = aqueous solution of Supreme Biotechnology (Bright White) laundry detergent, label = solvent for probe
[14] = aqueous solution of Supreme Biotechnology (Bright White) laundry detergent, label = solvent for probe (auxiliary agent)
[15] = HSP distance between solvent and curcumin (CUR)
[16] = total δ of solvent minus total δ of curcumin (CUR)

Compound	Flash point [1]	Viscosity [1]	Dispersion δD [2]	Hydrogen bonding δH [2]	Polarity δH [2]	Total δ [2]	Volatility/Boiling point [1]	δ difference [3, 16]	other results
CC(O)CCO (stereo not drawn) [1,3-butanediol]	121 °C	130.3 mPa · s	–	–	–	–	–	–	Viscosity ([1]; listed as 1,3-butanediol (1,3-BDO)): 130 mPa · s
CC(C)=O [Acetone]	−17.8 °C	0.316 mPa · s	15.5 (MPa)^1/2	7 (MPa)^1/2	10.4 (MPa)^1/2	19.935 (MPa)^1/2	56 °C	–	Ra [3, 9]: 16.806 (MPa)^1/2; Ra [3, 10]: 13.727 (MPa)^1/2; δ difference [3, 11]: −2.974 (MPa)^1/2; δ difference [3, 12]: −10.518 (MPa)^1/2
CC#N [Acetonitrile]	5.6 °C	0.375 mPa · s	15.3 (MPa)^1/2	6.1 (MPa)^1/2	18 (MPa)^1/2	24.399 (MPa)^1/2	82 °C	–	–
Cc1cc(=O)oc2c3c4c(cc12)CCCN4CCC3 [C480, coumarin 480]	–	–	–	–	–	–	–	–	cmc value range [4]: 0.05 to 0.2 g/L; cmc value range [5]: 0.3 to 1 g/L
COc1cc(/C=C/C(=O)CC(=O)/C=C/c2ccc(O)c(OC)c2)ccc1O [CUR, curcumin]	–	–	–	–	–	–	–	–	cmc value range [4]: 0.05 to 0.1 g/L; cmc value range [5]: 0.2 to 0.3 g/L
CCCCOC(=O)c1ccccc1C(=O)OCCCC [Dibutyl phthalate]	171 °C	9.72 mPa · s	17.8 (MPa)^1/2	4.1 (MPa)^1/2	8.6 (MPa)^1/2	20.189 (MPa)^1/2	339 °C	–	–
CCOCCOCCO [Diethylene glycol monoethyl ether (DGME), Diethylene glycol monoethyl ether]	94 °C	3.85 mPa · s	16.1 (MPa)^1/2	12.2 (MPa)^1/2	9.2 (MPa)^1/2	22.197 (MPa)^1/2	202 °C	−0.382 (MPa)^1/2	cmc value, CUR, By Customized fluorescence photoelectric detector [6]: 0.114 g/L; cmc value, NR, By Customized fluorescence photoelectric detector [6]: 0.074 g/L; cmc value, NR, By Fluorescence spectrophotometer [7, 13]: 0.089 g/L; cmc value, CUR, By Fluorescence spectrophotometer [7, 14]: 0.086 g/L; Ra [3, 15]: 6.386 (MPa)^1/2; Ra [3, 9]: 16.995 (MPa)^1/2; Ra [3, 10]: 10.489 (MPa)^1/2; δ difference [3, 11]: −0.712 (MPa)^1/2; δ difference [3, 12]: −8.256 (MPa)^1/2
C[S+](C)[O-] [Dimethyl sulfoxide]	–	–	18.4 (MPa)^1/2	10.2 (MPa)^1/2	16.4 (MPa)^1/2	26.675 (MPa)^1/2	–	4.096 (MPa)^1/2	Ra [3, 15]: 13.383 (MPa)^1/2
CN(C)C=O [Dimethylformamide (DMF), Dimethylformamide]	58 °C	0.802 mPa · s	17.4 (MPa)^1/2	11.3 (MPa)^1/2	13.7 (MPa)^1/2	24.862 (MPa)^1/2	–	–	–
CCOCC [Ether]	–	–	14.5 (MPa)^1/2	4.6 (MPa)^1/2	2.9 (MPa)^1/2	15.486 (MPa)^1/2	–	–	Ra [3, 9]: 16.064 (MPa)^1/2; Ra [3, 10]: 20.633 (MPa)^1/2; δ difference [3, 11]: −7.423 (MPa)^1/2; δ difference [3, 12]: −14.967 (MPa)^1/2
CCOC(=O)CO [Ethyl glycolate]	62 °C	–	–	–	–	–	158 °C	2.225 (MPa)^1/2	Ra [3, 15]: 14.383 (MPa)^1/2
OCCOc1ccccc1 [Ethylene glycol monophenyl ether]	121 °C	30.5 mPa · s	17.8 (MPa)^1/2	12.2 (MPa)^1/2	5.9 (MPa)^1/2	22.372 (MPa)^1/2	245 °C	−0.207 (MPa)^1/2	Ra [3, 15]: 2.858 (MPa)^1/2
OCCO [Ethylene glycol]	–	–	–	–	–	–	–	–	cmc value, CUR, By Customized fluorescence photoelectric detector [6]: 0.121 g/L; cmc value, CUR, By Fluorescence spectrophotometer [7]: 0.102 g/L; cmc value, NR, By Fluorescence spectrophotometer [7]: 0.091 g/L
OCC(O)CO [Glycerol]	–	–	17.4 (MPa)^1/2	29.3 (MPa)^1/2	12.1 (MPa)^1/2	36.162 (MPa)^1/2	–	13.583 (MPa)^1/2	Ra [3, 15]: 17.614 (MPa)^1/2
CCN1CCCC1=O [N-ethylpyrrolidone (NEP), N-ethylpyrrolidone]	76.1 °C	–	18 (MPa)^1/2	7 (MPa)^1/2	12 (MPa)^1/2	22.738 (MPa)^1/2	218 °C	0.159 (MPa)^1/2	–
CN1CCCC1=O [N-methylpyrrolidone (NMP), N-methylpyrrolidone]	85 °C	1.65 mPa · s	18 (MPa)^1/2	7.2 (MPa)^1/2	12.3 (MPa)^1/2	22.959 (MPa)^1/2	204 °C	0.380 (MPa)^1/2	cmc ([8]; solvent content 0 (v organic solvent/v water)): 0.067 g/L; cmc ([8]; solvent content 0.4%): 0.076 g/L; cmc ([8]; solvent content 1%): 0.073 g/L; cmc ([8]; solvent content 2%): 0.101 g/L; cmc ([8]; solvent content 4%): 0.082 g/L; cmc ([8]; solvent content 10%): 0.131 g/L; cmc ([8]; solvent content 20%): 0.22 g/L; cmc value, CUR, By Customized fluorescence photoelectric detector [6]: 0.116 g/L; cmc value, NR, By Customized fluorescence photoelectric detector [6]: 0.066 g/L; cmc value, NR, By Fluorescence spectrophotometer [7, 13]: 0.088 g/L; cmc value, CUR, By Fluorescence spectrophotometer [7, 14]: 0.100 g/L; Ra [3, 15]: 10.950 (MPa)^1/2; Ra [3, 9]: 14.343 (MPa)^1/2; Ra [3, 10]: 12.708 (MPa)^1/2; δ difference [3, 11]: 0.050 (MPa)^1/2; δ difference [3, 12]: −7.494 (MPa)^1/2
c1ccc(Nc2cccc3ccccc23)cc1 [NPN, N-phenyl-1-naphthylamine]	–	–	–	–	–	–	–	–	cmc value range [4]: 0.02 to 0.05 g/L
CCN(CC)c1ccc2nc3c4ccccc4c(=O)cc-3oc2c1 [NR, Nile red]	–	–	–	–	–	–	–	–	cmc value range [4]: 0.05 to 0.1 g/L; cmc value range [5]: 0.2 to 0.3 g/L
c1cc2ccc3cccc4ccc(c1)c2c34 [PYR, pyrene, reference compound]	–	–	22.5 (MPa)^1/2	4 (MPa)^1/2	1.6 (MPa)^1/2	22.909 (MPa)^1/2	–	–	cmc value range [4]: 0.05 to 0.2 g/L; cmc value range [5]: 0.03 to 0.1 g/L
CCN(CC)c1ccc2c(-c3ccccc3C(=O)O)c3ccc(=[N+](CC)CC)cc-3oc2c1 [RhB, rhodamine B, reference compound]	–	–	16.7 (MPa)^1/2	18.5 (MPa)^1/2	17.5 (MPa)^1/2	30.453 (MPa)^1/2	–	–	cmc value range [4]: 0.1 to 0.15 g/L; cmc value range [5]: 0.3 to 1 g/L
Cc1ccccc1 [Toluene]	4.4 °C	0.587 mPa · s	18 (MPa)^1/2	2 (MPa)^1/2	1.4 (MPa)^1/2	–	–	–	–
Polyethylene glycol 200 [Polyethylene glycol 200 (PEG200)]	>100 °C	(22-23) mPa · s	–	–	–	–	–	–	cmc value, CUR, By Customized fluorescence photoelectric detector [6]: 0.113 g/L; cmc value, NR, By Customized fluorescence photoelectric detector [6]: 0.069 g/L; cmc value, NR, By Fluorescence spectrophotometer [7, 13]: 0.062 g/L; cmc value, CUR, By Fluorescence spectrophotometer [7, 14]: 0.094 g/L
Water	–	1.002 mPa · s	15.5 (MPa)^1/2	42.3 (MPa)^1/2	16 (MPa)^1/2	47.807 (MPa)^1/2	–	–	–
